According to patent US11123357B2, “Methods and compositions for treating oral mucositis” (Lakewood Amedex, Inc., priority 2018, dated 2021):

Key:
[1] = Mean daily percent body weight change in irradiated hamsters; type: in vivo, Syrian Golden Hamsters; details: Group 3 (10% Nu-8, TID topical); p<0.05
From the text: The mean daily percent body weight change data are shown in FIG. 2 for animals in all groups. Animals steadily gained weight throughout the duration of the study.

[2] = test system: oral mucositis induced by acute radiation; test: Oral mucositis induced by acute radiation in hamsters (blinded mucositis scoring); type: in vivo, Syrian Golden Hamsters; parameters: key to peak mean mucositis score: 0 = normal, 5 = severe ulceration (photographic scale); details: for % Days ≥ 3 / Days < 3 (animal days with mucositis score <3) / Days ≥ 3 (animal days with mucositis score ≥3): through Day 28
From the text: The objective of the study was to test the efficacy of Nu-8 in the treatment of oral mucositis induced by acute radiation in hamsters.
Normal male Syrian Golden Hamsters (Charles River Laboratories), aged 5 to 6 weeks, with average body weight (±SD) of 92.83±3.36 g at study commencement, were used. Animals were individually numbered using an ear punch and housed in small groups. Animals were acclimatized prior to study commencement. During this period, the animals were observed daily in order to reject animals that were in poor condition.
Animals were randomly and prospectively divided into three (3) groups of eight (8) animals each prior to irradiation. Each animal was identified by an ear punch corresponding to an individual number. A cage card was used to identify each cage or label marked with the study number (LKW-01), treatment group number and animal numbers.
Formulation: • 1. Make fresh daily. Weigh out necessary amount of compound and dissolve in normal saline. Titrate with citric acid to bring pH of solution down to approximate 3.5 (pH range 3 to 4). • 2. The vehicle administered to animals in Group 1 was also titrated with citric acid to a pH of ˜3.5 (pH range 3 to 4).
Mucositis was induced using a single of radiation (40 Gy) administered on Day 0. Radiation was generated with a 160-kilovolt potential (18.75-ma) source at a focal distance of 10 cm, hardened with a 3.0 mm Al filtration system. Irradiation targeted the left buccal pouch mucosa at a rate of 2-2.5 Gy/minute. Prior to irradiation, animals were anesthetized with an intraperitoneal injection of ketamine (160 mg/kg) and xylazine (8 mg/kg). The left buccal pouch was everted, fixed and isolated using a lead shield.
Starting on Day 6 and continuing every second day thereafter (Days 8, 10, 12, 14, 16, 18, 20, 22, 24, 26, 28) each animal was photographed and evaluated for mucositis scoring. For the evaluation of mucositis, the animals were anesthetized with an inhalation anesthetic and the left pouch everted. Mucositis was scored visually by comparison to a validated photographic scale (FIGS. 1A-1F), ranging from 0 for normal, to 5 for severe ulceration (clinical scoring). In descriptive terms, this scale is defined as follows: […]
A score of 1-2 is considered to represent a mild stage of the disease, whereas a score of 3-5 is considered to indicate moderate to severe ulcerative mucositis. Following visual clinical scoring, a photograph was taken of each animal's mucosa using a standardized technique. At the conclusion of the experiment, the photographs were randomly numbered and scored by two independent, trained observers who graded the images in blinded fashion using the above-described scale (blinded scoring). For each photograph, the actual blinded score was based on the average of the 2 observers' scores. Only the scores from the blinded, photographic evaluation were reported and used for statistical analyses. Hamsters reaching a mucositis severity score of 4 or higher received buprenorphine (0.5 mg/kg) SC twice a day for 48 hours or until score dropped below 4. Statistical Analyses
Using the blinded photographs, statistical differences between treatment groups were determined using Mann-Whitney Rank Sum test and chi-square analysis with a critical value of 0.05. It was anticipated that up to 10% animal death may occur, primarily as a result of the administration of anesthetics. However, the number of animals expected to remain alive at Day 28 (6 per treatment group) was considered acceptable for statistical evaluation.
The difference in the number of days hamsters in each group have severe mucositis (score ≥3) was analyzed. On each day the animals were scored (evaluation day), the number of animals with a blinded mucositis score of ≥3 in each treatment group was compared to the Vehicle control group. Differences were analyzed on a daily as well as a cumulative basis. […]

With `CCCCOP(=O)(O)OC[C@H]1O[C@@H](n2ccc(N)nc2=O)C[C@@H]1OP(=O)(O)OCCCC` [Nu-8, ((2R,3S,5R)-5-(4-amino-2-oxopyrimidin-1(2H)-yl)-3-((butoxyoxidophosphor-yl)oxy)tetrahydrofuran-2-yl)methyl butyl phosphate] the “mean percent weight change vs. vehicle group (AUC analysis, one-way ANOVA)” value [1] was “statistically significant lower mean percent weight change”, the “days of significant improvement in mucositis scores vs. Vehicle (Mann-Whitney rank sum)” value ([2]; 1% Nu-8 (Group 2)) was “one day of significant improvement” and the “Chi Sq vs. Vehicle (animal days with score ≥3)” value ([2]; 1% Nu-8, TID topical) was 2.094. For the same compound, the “Percent Ulceration by Day (Score ≥ 3)” value ([2]; 1% Nu-8, TID topical, Day 6) was 0.0%, the “Percent Ulceration by Day (Score ≥ 3)” value ([2]; 1% Nu-8, TID topical, Day 8) was 0.0% and the “Percent Ulceration by Day (Score ≥ 3)” value ([2]; 1% Nu-8, TID topical, Day 10) was 0.0%. For the same compound, the “Percent Ulceration by Day (Score ≥ 3)” value ([2]; 1% Nu-8, TID topical, Day 12) was 0.0%, the “Percent Ulceration by Day (Score ≥ 3)” value ([2]; 1% Nu-8, TID topical, Day 14) was 12.5% and the “Percent Ulceration by Day (Score ≥ 3)” value ([2]; 1% Nu-8, TID topical, Day 16) was 50.0%. The “Percent Ulceration by Day (Score ≥ 3)” value ([2]; 1% Nu-8, TID topical, Day 18) was 87.5%, the “Percent Ulceration by Day (Score ≥ 3)” value ([2]; 1% Nu-8, TID topical, Day 20) was 87.5% and the “Percent Ulceration by Day (Score ≥ 3)” value ([2]; 1% Nu-8, TID topical, Day 22) was 87.5%. For the same compound, the “Percent Ulceration by Day (Score ≥ 3)” value ([2]; 1% Nu-8, TID topical, Day 24) was 87.5%, the “Percent Ulceration by Day (Score ≥ 3)” value ([2]; 1% Nu-8, TID topical, Day 26) was 50.0% and the “Percent Ulceration by Day (Score ≥ 3)” value ([2]; 1% Nu-8, TID topical, Day 28) was 25.0%. For the same compound, the “peak mean mucositis score” value ([2]; 1% Nu-8, TID topical, on Day 18) was 2.88±0.13, the “% Days ≥ 3” value ([2]; 1% Nu-8, TID topical) was 40.63% and the “Days < 3 (animal days with mucositis score <3)” value ([2]; 1% Nu-8, TID topical) was 57. The “Days ≥ 3 (animal days with mucositis score ≥3)” value ([2]; 1% Nu-8, TID topical) was 39, the “days of significant improvement in mucositis scores vs. Vehicle (Mann-Whitney rank sum)” value ([2]; 10% Nu-8 (Group 3)) was “multiple days of significant improvement” and the “Chi Sq vs. Vehicle (animal days with score ≥3)” value ([2]; 10% Nu-8, TID topical) was 30.762. The “disease severity in comparison to vehicle-dosed animals” value ([2]; 10% Nu-8, TID topical) was “robust mitigation of disease severity”, the “Percent Ulceration by Day (Score ≥ 3)” value ([2]; 10% Nu-8, TID topical, Day 6) was 0.0% and the “Percent Ulceration by Day (Score ≥ 3)” value ([2]; 10% Nu-8, TID topical, Day 8) was 0.0%. For the same compound, the “Percent Ulceration by Day (Score ≥ 3)” value ([2]; 10% Nu-8, TID topical, Day 10) was 0.0%, the “Percent Ulceration by Day (Score ≥ 3)” value ([2]; 10% Nu-8, TID topical, Day 12) was 0.0% and the “Percent Ulceration by Day (Score ≥ 3)” value ([2]; 10% Nu-8, TID topical, Day 14) was 12.5%. For the same compound, the “Percent Ulceration by Day (Score ≥ 3)” value ([2]; 10% Nu-8, TID topical, Day 16) was 25.0%, the “Percent Ulceration by Day (Score ≥ 3)” value ([2]; 10% Nu-8, TID topical, Day 18) was 25.0% and the “Percent Ulceration by Day (Score ≥ 3)” value ([2]; 10% Nu-8, TID topical, Day 20) was 25.0%. The “Percent Ulceration by Day (Score ≥ 3)” value ([2]; 10% Nu-8, TID topical, Day 22) was 25.0%, the “Percent Ulceration by Day (Score ≥ 3)” value ([2]; 10% Nu-8, TID topical, Day 24) was 12.5% and the “Percent Ulceration by Day (Score ≥ 3)” value ([2]; 10% Nu-8, TID topical, Day 26) was 0.0%. For the same compound, the “Percent Ulceration by Day (Score ≥ 3)” value ([2]; 10% Nu-8, TID topical, Day 28) was 0.0%, the “peak mean mucositis score” value ([2]; 10% Nu-8, TID topical, on Days 16 & 18) was 2.29±0.18 and the “% Days ≥ 3” value ([2]; 10% Nu-8, TID topical) was 11.90%. The “Days < 3 (animal days with mucositis score <3)” value ([2]; 10% Nu-8, TID topical) was 74, the “Days ≥ 3 (animal days with mucositis score ≥3)” value ([2]; 10% Nu-8, TID topical) was 10 and the “percentage of days with a score of ≥3 in comparison to the Vehicle control group” value ([2]; 10% Nu-8, chi-square analysis) was “statistically different”. The “percent ulceration in comparison to vehicle-dosed animal” value ([2]; both dose concentrations (1% and 10%), numerous days) was “percent ulceration that was lower in comparison to vehicle-dosed animal” and the “disease onset (mean daily mucositis scores)” value ([2]; both groups treated with Nu-8 (1% and 10%), more so with 10%) was “modest attenuation of disease onset”.
